Data from US20260083709A1, “COMBINATION PHARMACOLOGICAL INTERVENTIONS FOR MULTIPLE MECHANISMS OF OBSTRUCTIVE SLEEP APNEA” (APNIMED, INC.(DELAWARE), priority 2019, published 2026).

How the values were obtained:
OSA [1] = settings: agents administered separately (N=9); cited from earlier work
OSA [2] = assay: Acetazolamide effect on loop gain and OSA severity; set-up: species or system human; settings: in vivo
Description: Residual events after anatomical interventions can arise as an effect of elevated loop gain. […] Acetazolamide is a respiratory stimulant used in healthy adults at high-altitude (where it augments and stabilizes respiration) and has additionally been administered safely long-term for glaucoma and heart failure.

Row | Structure (SMILES) | effect on OSA severity, agents administered separately (OSA [1]) | reduction of OSA severity (AHI) (OSA [2]) [%] | reduction of loop gain (OSA [2]) [%]
1 | CNCC[C@@H](Oc1ccccc1C)c1ccccc1 [atomoxetine, Atomoxetine] | minimal effect | – | –
2 | CCN(CC)CC#CCOC(=O)C(O)(c1ccccc1)C1CCCCC1 (stereo not shown) [oxybutynin] | minimal effect | – | –
3 | CC(=O)Nc1nnc(S(N)(=O)=O)s1 [acetazolamide] | – | ~50 | ~50
